Legend:
[1] = target: T1, Prostaglandin G/H synthase 1 (Ovis aries, UniProt P05979); test: COX Enzyme Inhibition Assay (Table 1)
T1 sequence (P05979 whole entry): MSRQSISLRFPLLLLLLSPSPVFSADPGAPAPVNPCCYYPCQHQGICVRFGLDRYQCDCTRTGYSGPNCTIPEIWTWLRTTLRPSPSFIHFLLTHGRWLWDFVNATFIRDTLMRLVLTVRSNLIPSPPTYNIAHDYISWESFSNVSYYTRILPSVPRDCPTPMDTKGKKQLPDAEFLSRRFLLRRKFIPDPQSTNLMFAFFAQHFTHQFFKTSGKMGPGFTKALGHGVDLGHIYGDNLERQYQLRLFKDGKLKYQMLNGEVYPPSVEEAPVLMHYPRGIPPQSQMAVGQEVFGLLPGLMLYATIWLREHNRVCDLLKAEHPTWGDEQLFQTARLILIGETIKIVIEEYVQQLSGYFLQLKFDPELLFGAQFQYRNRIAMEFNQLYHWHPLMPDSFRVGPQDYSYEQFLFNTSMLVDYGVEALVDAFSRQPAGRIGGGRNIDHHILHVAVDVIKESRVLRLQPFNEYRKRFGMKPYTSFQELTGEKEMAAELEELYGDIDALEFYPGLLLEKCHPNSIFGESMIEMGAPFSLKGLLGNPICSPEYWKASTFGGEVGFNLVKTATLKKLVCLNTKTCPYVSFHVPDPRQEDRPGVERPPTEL

[2] = target: T2, Prostaglandin G/H synthase 2 (Mus musculus, UniProt Q05769); test: COX Enzyme Inhibition Assay (Table 1)
T2 sequence (Q05769 whole entry): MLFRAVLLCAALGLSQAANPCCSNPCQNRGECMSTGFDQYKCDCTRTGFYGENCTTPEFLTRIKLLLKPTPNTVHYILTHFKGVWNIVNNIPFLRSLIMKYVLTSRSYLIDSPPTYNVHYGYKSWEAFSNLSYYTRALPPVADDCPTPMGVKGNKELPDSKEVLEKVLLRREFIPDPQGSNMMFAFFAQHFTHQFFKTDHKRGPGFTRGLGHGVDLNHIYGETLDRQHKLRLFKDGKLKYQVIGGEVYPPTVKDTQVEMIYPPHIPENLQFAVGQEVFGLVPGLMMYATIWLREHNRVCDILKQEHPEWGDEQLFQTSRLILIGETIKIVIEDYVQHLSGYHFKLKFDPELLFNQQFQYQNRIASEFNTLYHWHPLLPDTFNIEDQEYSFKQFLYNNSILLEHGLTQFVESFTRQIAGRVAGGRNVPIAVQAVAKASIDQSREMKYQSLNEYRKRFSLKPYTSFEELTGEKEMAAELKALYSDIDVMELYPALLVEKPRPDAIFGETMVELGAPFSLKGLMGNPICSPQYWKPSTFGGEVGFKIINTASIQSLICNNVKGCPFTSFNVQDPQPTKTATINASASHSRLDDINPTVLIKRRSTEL

For COc1ccc2c(c1)c(CC(=O)NCCCCOC(=O)CCC(=O)O[C@@H]1c3cc4c(cc3[C@H](c3cc(OC)c(OC)c(OC)c3)[C@@H]3C(=O)OCC13)OCO4)c(C)n2C(=O)c1ccc(Cl)cc1 (stereo partly specified) [Cytotoxic conjugates, 14], the IC50 [1] was greater than 25 µM.

For COc1ccc2c(c1)c(CCNC(=O)CCC(=O)Nc1ccc(S(=O)(=O)Nc3nccs3)cc1)c(C)n2Cc1ccc(Br)cc1 [Cytotoxic conjugates, 9], the IC50 [2] was greater than 25 µM and the IC50 [1] was greater than 25 µM.

Work on COc1ccc2c(c1)c(CC(=O)NCCOC(=O)\C=C(C)/C=C/C=C(C)/C=C/C1=C(C)CCCC1(C)C)c(C)n2C(=O)c1ccc(Cl)cc1 [Cytotoxic conjugates, 5] yielded an IC50 [1] greater than 25 µM.

With COc1ccc2c(c1)c(CC(=O)O[C@@H](C(=O)O[C@H]1C[C@@]3(O)[C@@H](OC(=O)c4ccccc4)[C@@H]4[C@]5(OC(C)=O)CO[C@@H]5C[C@H](O)[C@@]4(C)C(=O)[C@H](OC(C)=O)C(=C1C)C3(C)C)[C@@H](NC(=O)c1ccccc1)c1ccccc1)c(C)n2C(=O)c1ccc(Cl)cc1 [Cytotoxic conjugates, 1] the IC50 [2] was greater than 25 µM and the IC50 [1] was greater than 25 µM.

COc1ccc2c(c1)c(CC(=O)Nc1ccc(CNC(=O)CCC(=O)O[C@@H](C(=O)O[C@H]3C[C@@]4(O)[C@@H](OC(=O)c5ccccc5)[C@@H]5[C@]6(OC(C)=O)CO[C@@H]6C[C@H](O)[C@@]5(C)C(=O)[C@H](OC(C)=O)C(=C3C)C4(C)C)[C@@H](NC(=O)c3ccccc3)c3ccccc3)cc1)c(C)n2C(=O)c1ccc(Cl)cc1 [Cytotoxic conjugates, 4] was tested, and the IC50 [1] was greater than 25 µM.

For COc1ccc2c(c1)c(CC(=O)NCCNC(=O)CCC(=O)O[C@@H]1c3cc4c(cc3[C@H](c3cc(OC)c(OC)c(OC)c3)[C@@H]3C(=O)OCC13)OCO4)c(C)n2C(=O)c1ccc(Cl)cc1 (stereo partly specified) [Cytotoxic conjugates, 11], the IC50 [2] was 0.47 µM and the IC50 [1] was greater than 25 µM.

COc1ccc2c(c1)c(CC(=O)NCc1ccc(CNC(=O)CCC(=O)O[C@@H]3c4cc5c(cc4[C@H](c4cc(OC)c(OC)c(OC)c4)[C@@H]4C(=O)OCC34)OCO5)cc1)c(C)n2C(=O)c1ccc(Cl)cc1 (stereo partly specified) [Cytotoxic conjugates, 15] gave an IC50 [1] greater than 25 µM.

COc1ccc2c(c1)c(CC(=O)NCCNC(=O)/C=C(C)/C=C/C=C(C)\C=C\C1=C(C)CCCC1(C)C)c(C)n2C(=O)c1ccc(Cl)cc1 [Cytotoxic conjugates, 7] was tested, and the IC50 [2] was 0.6 µM and the IC50 [1] was greater than 25 µM.

CCC1(O)C(=O)OCc2c1cc1n(c2=O)Cc2cc3cc(OC(=O)CCC(=O)OCCNC(=O)Cc4c(C)n(C(=O)c5ccc(Cl)cc5)c5ccc(OC)cc45)ccc3nc2-1 (stereo unspecified) [Cytotoxic conjugates, 10] was tested, and the IC50 [2] was greater than 25 µM and the IC50 [1] was greater than 25 µM.

For COc1cc([C@@H]2c3cc4c(cc3[C@H](O)[C@H]3COC(=O)[C@H]23)OCO4)cc(OC)c1OC [podophyllotoxin], the IC50 [2] was greater than 25 µM and the IC50 [1] was greater than 25 µM.

In the case of COc1ccc2c(c1)c(CC(=O)NCCCCNC(=O)CCC(=O)OC1CCCCC1)c(C)n2C(=O)c1ccc(Cl)cc1 [Cytotoxic conjugates, 16], the IC50 [1] is reported as greater than 25 µM.

Work on COc1ccc2c(c1)c(CC(=O)NCCNC(=O)/C=C(C)/C=C/C=C(C)/C=C/C1=C(C)CCCC1(C)C)c(C)n2C(=O)c1ccc(Cl)cc1 [Cytotoxic conjugates, 6] yielded an IC50 [2] of 0.1 µM and an IC50 [1] greater than 25 µM.

Compound COc1ccc2c(c1)c(CC(=O)NCCNC(=O)CCC(=O)Nc1ccc(S(=O)(=O)Nc3nccs3)cc1)c(C)n2C(=O)c1ccc(Cl)cc1 [Cytotoxic conjugates, 8] has an IC50 [1] greater than 25 µM.

With COc1ccc2c(c1)c(CC(=O)NCCCCOC(=O)CCC(=O)O[C@@H](C(=O)O[C@H]1C[C@@]3(O)[C@@H](OC(=O)c4ccccc4)[C@@H]4[C@]5(OC(C)=O)CO[C@@H]5C[C@H](O)[C@@]4(C)C(=O)[C@H](OC(C)=O)C(=C1C)C3(C)C)[C@@H](NC(=O)c1ccccc1)c1ccccc1)c(C)n2C(=O)c1ccc(Cl)cc1 [Cytotoxic conjugates, 3] the IC50 [1] was greater than 25 µM.
